Experiments:
[1] = molecular target: T1, EGFR (A431 cell) (Homo sapiens, UniProt P00533); assay: EGF-EGFR binding inhibition assay (Eu-EGF, A431 cells, DELFIA time-resolved fluorescence); conditions: Eu-EGF 5 nmol/L, compounds at 1, 3, 10 and 30 μg/mL, nonlinear least square fitting
T1 construct: host or cells: A431 cells
Method: A431 cells (human squamous cell carcinoma cells, purchased from ATCC) for use in this experiment were subcultured using a medium (hereinafter denoted as a medium) prepared by adding inactivated FBS (JRH), Penicillin-streptmycin (GIBCO), and Amphotelicin B (Sigma) at final concentrations of 10 vol %, 50 U/mL-50 μg/mL, and 1 μg/mL, respectively, to DMEM (Sigma). A431 cells suspended in the medium were inoculated into a 96-well microtiter plate (black, COSTAR) at 10,000 cells/100 μL/well, and then pre-cultured overnight in a CO2 incubator (37° C., 5% CO2). After the media within the wells had been completely removed, the wells were washed once in 50 mmol/L HEPES-HCl (pH 7.8, hereinafter denoted as a Buffer) containing 138 mmol/L NaCl, 5 mmol/L KCl, 1.2 mmol/L MgSO4, 1.2 mmol/L CaCl2, 75 μmol/L EDTA and 0.2 vol % BSA, and then a Buffer was added at 49 μL/well. Subsequently, DMSO was added at 1 μL/well, and then Eu-EGF that had been diluted with a Buffer at various concentrations were added at 50 μL/well. The plate was incubated at room temperature for 1 hour, washed 5 times with an ice-cold buffer (200 μL/well), and then a DELFIA enhancement reagent (PerkinElmer life sciences) was added at 100 μL/well. After further 30 minutes of incubation at room temperature, time-resolved fluorescence was measured using a plate reader (ARVO-sx, PerkinElmer life sciences). Excitation wavelength and emission wavelength used herein were 340 nm and 615 nm, respectively.
A value of specific binding was calculated by subtracting a measured value of non-specific binding from a value measured at each ligand concentration. […]
A representative compounds for site 1 of 2) in Example 6, a representative compounds for site 2 of 2) in Example 6, and a representative compounds for site 3 of 1) in Example 6 were subjected to this assay. […] After 30 minutes of incubation at room temperature, time-resolved fluorescence was measured using a plate reader (ARVO-sx, PerkinElmer life sciences). […] Assay was run in duplicate, and then data were processed using each average measured value. […]

[2] = molecular target: T2, EGF receptor of A431 cells (Homo sapiens, UniProt P00533); assay: EGFR antagonist activity using EGFR phosphorylation as an index (western blotting); type: cell-based; conditions: EGF 100 ng/mL
T2 construct: endogenous in cells; host or cells: A431 cells
T2 sequence (P00533 25-1210): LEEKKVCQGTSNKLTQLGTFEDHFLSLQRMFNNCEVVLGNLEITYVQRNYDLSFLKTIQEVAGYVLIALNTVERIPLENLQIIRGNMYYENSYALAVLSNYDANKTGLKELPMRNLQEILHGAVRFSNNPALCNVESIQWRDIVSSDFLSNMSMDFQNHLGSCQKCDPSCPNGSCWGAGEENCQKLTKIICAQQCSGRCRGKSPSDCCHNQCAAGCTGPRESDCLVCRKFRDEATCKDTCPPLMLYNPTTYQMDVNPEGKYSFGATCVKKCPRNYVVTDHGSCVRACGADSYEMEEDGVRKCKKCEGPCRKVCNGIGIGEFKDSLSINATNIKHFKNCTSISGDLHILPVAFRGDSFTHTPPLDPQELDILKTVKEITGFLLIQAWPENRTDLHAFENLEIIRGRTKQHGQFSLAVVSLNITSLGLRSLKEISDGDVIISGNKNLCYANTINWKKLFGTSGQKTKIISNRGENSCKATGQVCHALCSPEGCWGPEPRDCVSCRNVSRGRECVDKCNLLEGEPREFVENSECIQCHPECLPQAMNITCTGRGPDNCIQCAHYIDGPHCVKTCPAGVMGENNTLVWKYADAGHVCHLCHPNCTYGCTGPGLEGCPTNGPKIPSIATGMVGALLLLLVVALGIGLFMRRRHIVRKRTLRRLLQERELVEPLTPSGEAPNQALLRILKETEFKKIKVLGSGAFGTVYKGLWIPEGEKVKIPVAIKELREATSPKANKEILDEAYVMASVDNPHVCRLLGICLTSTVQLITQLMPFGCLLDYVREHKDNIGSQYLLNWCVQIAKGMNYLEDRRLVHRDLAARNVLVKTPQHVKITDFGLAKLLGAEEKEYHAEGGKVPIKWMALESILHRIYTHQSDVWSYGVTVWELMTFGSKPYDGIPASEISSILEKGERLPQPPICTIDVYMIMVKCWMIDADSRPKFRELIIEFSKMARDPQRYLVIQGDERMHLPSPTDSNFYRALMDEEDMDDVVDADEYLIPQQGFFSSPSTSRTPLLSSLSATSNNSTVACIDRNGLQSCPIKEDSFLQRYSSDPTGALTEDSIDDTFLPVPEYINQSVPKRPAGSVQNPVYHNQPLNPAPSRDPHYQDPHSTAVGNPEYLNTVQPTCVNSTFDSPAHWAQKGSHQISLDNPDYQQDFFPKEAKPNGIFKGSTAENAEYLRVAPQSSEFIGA
Method: When EGFR is activated by binding of a ligand, intracellular regions are phosphorylated. This phosphorylation is detectable using a phosphorylated receptor-specific antibody. A431 cells were cultured (BNR-110M, ESPEC CORP.) using Dulbecco's Modified Eagle's Medium (Sigma) containing 10% fetal calf serum (JRH Bioscience) under an environment of 5% CO2 at 37° C. for 1 day. The cells were then cultured in a serum-free medium for 1 day. When agonist activity was assayed, a medium containing a sample at a concentration of 10 μg/mL was added, and then the resultant was allowed to stand for 10 minutes. Furthermore, when antagonist activity was assayed, a medium containing a sample at a concentration of 10 μg/mL or 100 μg/mL was added, and then the resultant was allowed to stand for 20 minutes. […] The media were removed, the cells were washed with cooled phosphate buffered saline (PBS, Sigma), and then a heated cell lysis buffer (125 mmol/L Tris (Wako Pure Chemical Industries, Ltd.)-hydrochloric acid (Wako Pure Chemical Industries, Ltd.) buffer (pH 6.8) containing 20% glycerol (Wako Pure Chemical Industries, Ltd.), 2% SDS (Sigma), 5% 2-Mercaptoethanol (Sigma), and 0.025 mg/mL Bromo Phenol Blue (Sigma)) was added, thereby obtaining a cell lysate solution. The obtained cell lysate was applied to 7.5% polyacrylamide gel (e-PAGEL, ATTO Corporation), and then subjected to separation by electrophoresis (AE-6400, ATTO Corporation) under a condition of 30 mA per sheet of gel using Tris/glycine/SDS buffer (Bio-Rad Laboratories, Inc.). The resultant was transferred to a polyvinylidene difluoride (PVDF) membrane (clear blot membrane-P, ATTO Corporation) under conditions of 200 mA for 1 hour using semi-dry blotting system (AE-6675, ATTO Corporation). The PVDF membrane was blocked using PBS containing 5% skim milk (Wako Pure Chemical Industries, Ltd.) at room temperature for 1 hour.

T1 sequence (P00533 25-1210): as above

| IC50 [1] [µM] | inhibition of activation of the EGF receptor due to EGF (EGFR phosphorylation) ([2]; sample 100 μg/mL) | inhibition of activation of the EGF receptor due to EGF (EGFR phosphorylation) ([2]; sample 10 μg/mL) | Compound |
| --- | --- | --- | --- |
| 57.8 | inhibited activation of the EGF receptor |  | CCc1cc2c(cc1C(=O)CSc1ncccc1C(=O)O)C(C)(C)CCC2(C)C [2-[2-(3-ethyl-5,5,8,8-tetramethyl-5,6,7,8-tetrahydro-naphthalene-2-yl)-2-oxo-ethylsulfanyl]-nicotinic acid] |
| 16.7 |  | inhibited activation of the EGF receptor | CN1CCN(CCCN2c3ccccc3Sc3ccc(C(F)(F)F)cc32)CC1.Cl.Cl [10-[3-(4-methyl-piperazine-1-yl)-propyl]-2-trifluoromethyl-10H-phenothiazine dihydrochloride] |
| 40.1 |  | inhibited activation of the EGF receptor | CCCCCCSc1nc2c(c(=O)[nH]c(=O)n2C)n1CCC [8-hexylsulfanyl-3-methyl-7-propyl-3,7-dihydro-purine-2,6-dione] |

— patent US7514240B2, “EGR-EGFR complex” (Japan Science and Technology Agency, priority 2002, dated 2009)
